From patent publication US12435044B2, “Pyridazinone herbicides and pyridazinone intermediates used to prepare a herbicide” (FMC Corporation, priority 2018, dated 2025)

Key:
Assay type in all cases: in vivo
[1] = tested on: soybean (GLXMA; Glycine max, cv. Pioneer 35T58); experiment: Test M postemergence, mixtures of Cpd. No. 20 with isoxadifen-ethyl, cloquintocet-mexyl or Mefenpyr-diethyl; details: approx. 14 d, second component alone 31 g a.i./ha
Text: (§1) This test evaluated the effect of mixtures of Cpd. No. 20 with isoxadifen-ethyl, or cloquintocet-mexyl, or Mefenpyr-diethyl on several plant species. Seeds of plant species selected from corn (ZEAMD; Zea mays, cv. ‘Pioneer 1184’), soybean (GLXMA; Glycine max, cv. Pioneer 35T58), winter wheat (TRZAW; Triticum aetivum, cv. Arezzo), winter barley (HORVW; Hordeum vulgare, cv. Boone), rice (ORYSS; Oryza sativa, cv. M202), and giant foxtail (SETFA; Setaria faberi) were planted in pots containing Redi-Earth® planting medium (Scotts Company, 14111 Scottslawn Road, Marysville, Ohio 43041) comprising spaghnum peat moss, vermiculite, wetting agent and starter nutrients and treated postemergence using test chemicals formulated in a non-phytotoxic solvent mixture which included a surfactant. Plants ranged in height from 7 to 10 cm and were in the one- to two-leaf stage for the postemergence treatment. Treated plants and untreated controls were maintained in a greenhouse for approximately 14 d, after which time all treated plants were compared to untreated controls and visually evaluated for injury. Plant response ratings, summarized in Tables M1 to M3, are based on a 0 to 100 scale where 0 is no effect and 100 is complete control. A dash (-) response means no test result. Test results are presented as a mean of 3 reps.

[2] = tested on: corn (ZEAMD; Zea mays, cv. ‘Pioneer 1184’); experiment: as above; details: approx. 14 d, second component alone 31 g a.i./ha
Text: as §1

[3] = tested on: winter barley (HORVW; Hordeum vulgare, cv. Boone); experiment: as above; details: approx. 14 d, second component alone 31 g a.i./ha
Text: as §1

[4] = tested on: rice (ORYSS; Oryza sativa, cv. M202); experiment: as above; details: approx. 14 d, second component alone 31 g a.i./ha
Text: as §1

[5] = tested on: winter wheat (TRZAW; Triticum aetivum, cv. Arezzo); experiment: as above; details: approx. 14 d, second component alone 31 g a.i./ha
Text: as §1

[6] = tested on: giant foxtail (SETFA; Setaria faberi); experiment: as above; details: approx. 14 d, second component alone 31 g a.i./ha
Text: as §1

[7] = tested on: soybean (GLXMA; Glycine max, cv. Pioneer 35T58); experiment: Test of Tables L1 to L3, postemergence, mixtures of Cpd. No. 20 with benoxacor, isoxadifen-ethyl, or cloquintocet-mexyl
Text: as §1, with “with benoxacor,” for “with”, “or cloquintocet-mexyl” for “or cloquintocet-mexyl, or Mefenpyr-diethyl”, “Arezzo),” for “Arezzo), winter barley (HORVW; Hordeum vulgare, cv. Boone),”, “Tables L1” for “Tables M1”, “to L3,” for “to M3,”, “of 4” for “of 3”

[8] = tested on: corn (ZEAMD; Zea mays, cv. ‘Pioneer 1184’); experiment: as above
Text: as §1, with “with benoxacor,” for “with”, “or cloquintocet-mexyl” for “or cloquintocet-mexyl, or Mefenpyr-diethyl”, “Arezzo),” for “Arezzo), winter barley (HORVW; Hordeum vulgare, cv. Boone),”, “Tables L1” for “Tables M1”, “to L3,” for “to M3,”, “of 4” for “of 3”

[9] = tested on: rice (ORYSS; Oryza sativa, cv. M202); experiment: as above
Text: as §1, with “with benoxacor,” for “with”, “or cloquintocet-mexyl” for “or cloquintocet-mexyl, or Mefenpyr-diethyl”, “Arezzo),” for “Arezzo), winter barley (HORVW; Hordeum vulgare, cv. Boone),”, “Tables L1” for “Tables M1”, “to L3,” for “to M3,”, “of 4” for “of 3”

[10] = tested on: winter wheat (TRZAW; Triticum aetivum, cv. Arezzo); experiment: as above
Text: as §1, with “with benoxacor,” for “with”, “or cloquintocet-mexyl” for “or cloquintocet-mexyl, or Mefenpyr-diethyl”, “Arezzo),” for “Arezzo), winter barley (HORVW; Hordeum vulgare, cv. Boone),”, “Tables L1” for “Tables M1”, “to L3,” for “to M3,”, “of 4” for “of 3”

[11] = tested on: giant foxtail (SETFA; Setaria faberi); experiment: as above
Text: as §1, with “with benoxacor,” for “with”, “or cloquintocet-mexyl” for “or cloquintocet-mexyl, or Mefenpyr-diethyl”, “Arezzo),” for “Arezzo), winter barley (HORVW; Hordeum vulgare, cv. Boone),”, “Tables L1” for “Tables M1”, “to L3,” for “to M3,”, “of 4” for “of 3”

[12] = tested on: E. black nightshade (SOLPT; Solanum ptycanthum); experiment: Test H postemergence, mixtures of Cpd. No. 20 with atrazine or glyphosate
Text: (§2) This test evaluated the effect of mixtures of Cpd. No. 20 with atrazine or glyphosate on several plant species. Seeds of plant species selected from corn (ZEAMD; Zea mays, cv. ‘Pioneer 1184’), soybean (GLXMA; Glycine max, cv. Pioneer 35T58), giant foxtail (SETFA; Setaria faberi), Surinamgrass (BRADC; Brachiaria decumbens), fall panicum (PANDI; Panicum dichotomiflorum), velvetleaf (ABUTH; Abutilon threophrasti), mare's tail (ERICA; Conyza canadensis), barnyardgrass (ECHCG; Echinochloa crus-galli), large crabgrass (DIGSA; Digitaria sanguinalis), palmer amaranth (AMAPA; Amaranthus palmeri), common waterhemp (AMATU; Amaranthus rudis), E. black nightshade (SOLPT; Solanum ptycanthum), and common ragweed (AMBEL; Ambrosia artemisiifolia) were planted in pots containing Redi-Earth® planting medium (Scotts Company, 14111 Scottslawn Road, Marysville, Ohio 43041) comprising spaghnum peat moss, vermiculite, wetting agent and starter nutrients and treated postemergence using test chemicals formulated in a non-phytotoxic solvent mixture which included a surfactant. Plants ranged in height from 2 to 10 cm and were in the one- to two-leaf stage for the postemergence treatment. Treated plants and untreated controls were maintained in a greenhouse for approximately 14 d, after which time all treated plants were compared to untreated controls and visually evaluated for injury. Plant response ratings, summarized in Tables H1 & H2, are based on a 0 to 100 scale where 0 is no effect and 100 is complete control. A dash (-) response means no test result. Test results are presented as a mean of 4 reps.

[13] = tested on: barnyardgrass (ECHCG; Echinochloa crus-galli); experiment: as above
Text: as §2

[14] = tested on: soybean (GLXMA; Glycine max, cv. Pioneer 35T58); experiment: as above
Text: as §2

[15] = tested on: corn (ZEAMD; Zea mays, cv. ‘Pioneer 1184’); experiment: as above
Text: as §2

[16] = tested on: velvetleaf (ABUTH; Abutilon threophrasti); experiment: as above
Text: as §2

[17] = tested on: mare's tail (ERICA; Conyza canadensis); experiment: as above
Text: as §2

[18] = tested on: common ragweed (AMBEL; Ambrosia artemisiifolia); experiment: as above
Text: as §2

[19] = tested on: large crabgrass (DIGSA; Digitaria sanguinalis); experiment: as above
Text: as §2

[20] = tested on: giant foxtail (SETFA; Setaria faberi); experiment: as above
Text: as §2

[21] = tested on: palmer amaranth (AMAPA; Amaranthus palmeri); experiment: as above
Text: as §2

[22] = tested on: common waterhemp (AMATU; Amaranthus rudis); experiment: as above
Text: as §2

[23] = tested on: Surinamgrass (BRADC; Brachiaria decumbens); experiment: as above
Text: as §2

[24] = tested on: fall panicum (PANDI; Panicum dichotomiflorum); experiment: as above
Text: as §2

[25] = approx. 14 d, Cloquintocet-mexyl alone 31 g a.i./ha

CCCCCC(C)OC(=O)COc1ccc(Cl)c2cccnc12 (stereo not drawn) [Cloquintocet-mexyl, cloquintocet-mexyl, reference compound]
Plant response rating (0 to 100 scale) GLXMA [1]: 0 | Plant response rating (0 to 100 scale) ZEAMD [2]: 0 | Plant response rating (0 to 100 scale) HORVW [3]: 0 | Plant response rating (0 to 100 scale) ORYSS [4]: 0 | Plant response rating (0 to 100 scale) TRZAW [5]: 0 | Plant response rating (0 to 100 scale) SETFA [6]: 0 | Plant response rating (0 to 100 scale) GLXMA [7, 25]: 0 | Plant response rating (0 to 100 scale) ZEAMD [8, 25]: 0 | Plant response rating (0 to 100 scale) ORYSS [9, 25]: 0 | Plant response rating (0 to 100 scale) TRZAW [10, 25]: 0 | Plant response rating (0 to 100 scale) SETFA [11, 25]: 0

O=C(O)CNCP(=O)(O)O [Glyphosate, glyphosate]
Observed result (plant response rating), SOLPT ([12]; applied alone at 62 g a.i./ha): 43 | Observed result (plant response rating), SOLPT ([12]; applied alone at 125 g a.i./ha): 51 | Observed result (plant response rating), ECHCG ([13]; applied alone at 62 g a.i./ha): 6 | Observed result (plant response rating), ECHCG ([13]; applied alone at 125 g a.i./ha): 31 | Observed result (plant response rating), GLXMA ([14]; applied alone at 62 g a.i./ha): 10 | Observed result (plant response rating), GLXMA ([14]; applied alone at 125 g a.i./ha): 25 | Observed result (plant response rating), ZEAMD ([15]; applied alone at 62 g a.i./ha): 68 | Observed result (plant response rating), ZEAMD ([15]; applied alone at 125 g a.i./ha): 74 | Observed result (plant response rating), ABUTH ([16]; applied alone at 62 g a.i./ha): 0 | Observed result (plant response rating), ABUTH ([16]; applied alone at 125 g a.i./ha): 15 | Observed result (plant response rating), ERICA ([17]; applied alone at 62 g a.i./ha): 0 | Observed result (plant response rating), ERICA ([17]; applied alone at 125 g a.i./ha): 0 | Observed result (plant response rating), AMBEL ([18]; applied alone at 62 g a.i./ha): 68 | Observed result (plant response rating), AMBEL ([18]; applied alone at 125 g a.i./ha): 84 | Observed result (plant response rating), DIGSA ([19]; applied alone at 62 g a.i./ha): 86 | Observed result (plant response rating), DIGSA ([19]; applied alone at 125 g a.i./ha): 90 | Observed result (plant response rating), SETFA ([20]; applied alone at 62 g a.i./ha): 74 | Observed result (plant response rating), SETFA ([20]; applied alone at 125 g a.i./ha): 75 | Observed result (plant response rating), AMAPA ([21]; applied alone at 62 g a.i./ha): 43 | Observed result (plant response rating), AMAPA ([21]; applied alone at 125 g a.i./ha): 23 | Observed result (plant response rating), AMATU ([22]; applied alone at 62 g a.i./ha): 11 | Observed result (plant response rating), AMATU ([22]; applied alone at 125 g a.i./ha): 25 | Observed result (plant response rating), BRADC ([23]; applied alone at 62 g a.i./ha): 68 | Observed result (plant response rating), BRADC ([23]; applied alone at 125 g a.i./ha): 69 | Observed result (plant response rating), PANDI ([24]; applied alone at 62 g a.i./ha): 28 | Observed result (plant response rating), PANDI ([24]; applied alone at 125 g a.i./ha): 51

CCOC(=O)C1=NOC(c2ccccc2)(c2ccccc2)C1 [Isoxadifen-ethyl, isoxadifen-ethyl, reference compound]
Plant response rating (0 to 100 scale) GLXMA [1]: 0 | Plant response rating (0 to 100 scale) ZEAMD [2]: 0 | Plant response rating (0 to 100 scale) HORVW [3]: 0 | Plant response rating (0 to 100 scale) ORYSS [4]: 0 | Plant response rating (0 to 100 scale) TRZAW [5]: 0 | Plant response rating (0 to 100 scale) SETFA [6]: 0 | GLXMA plant response rating, 0 to 100 scale ([7]; 31 g a.i./ha): 10 | ZEAMD plant response rating, 0 to 100 scale ([8]; 31 g a.i./ha): 0 | ORYSS plant response rating, 0 to 100 scale ([9]; 31 g a.i./ha): 8 | TRZAW plant response rating, 0 to 100 scale ([10]; 31 g a.i./ha): 0 | SETFA plant response rating, 0 to 100 scale ([11]; 31 g a.i./ha): 0

CCOC(=O)C1=NN(c2ccc(Cl)cc2Cl)C(C)(C(=O)OCC)C1 (stereo not drawn) [Mefenpyr-diethyl, reference compound]
Plant response rating (0 to 100 scale) GLXMA [1]: 0 | Plant response rating (0 to 100 scale) ZEAMD [2]: 0 | Plant response rating (0 to 100 scale) HORVW [3]: 0 | Plant response rating (0 to 100 scale) ORYSS [4]: 0 | Plant response rating (0 to 100 scale) TRZAW [5]: 0 | Plant response rating (0 to 100 scale) SETFA [6]: 0
